Experiment [1] has as its system Oocyte. Nature of the experiment: Inhibition of Plasmodium falciparum HT expressed in Xenopus laevis oocytes assessed as D-[U-14C]glucose uptake at 50 uM. In kind it is cell-based.
A further experiment deals with Plasmodium falciparum. In words: Antimalarial activity against Plasmodium falciparum NF54 within 48 hrs. The experiment is classed as functional, organism-based. The settings on record: NF54, 48 h.
Experiment [2] is filed under the species Oryctolagus cuniculus. Nature of the experiment: Inhibition of rabbit muscle SERCA at 100 uM.
For experiment [3], the system named is Oocyte. In words: Abrogation of Plasmodium falciparum ATP6 inhibition expressed in Xenopus laevis oocytes at 10 uM in presence of 100 uM desferioxamine. The experiment is classed as cell-based.
The test system of experiment [4] is Oocyte. Nature of the experiment: Inhibition of Plasmodium falciparum ATP6 expressed in Xenopus laevis oocytes at 50 uM. In kind it is cell-based.
A short description of experiment [5]: Inhibition of Plasmodium falciparum ATP6 expressed in Xenopus laevis oocytes. The experiment is classed as cell-based. The settings on record: oocyte.
The species named for experiment [6] is Oryctolagus cuniculus. In words: Inhibition of rabbit muscle SERCA at 10 uM.
Experiment [7] can be described thus: Inhibition of Plasmodium berghei SERCA.

Each structure is given as a SMILES string. Activity calls are given as the source filed them. The rule behind the calls is not given here.

For orientation: IC50 means the concentration that gives 50% inhibition. The low end stands for inhibition by little substance, the high end for a need for much substance. By inhibition is commonly meant how much of the control response was suppressed. A high value points to a response far below the control. In general, Ki refers to a measure of affinity in units of concentration, obtained from inhibition or displacement. Low values mean a stronger hold on the target, high ones a looser hold on the target.

In the case of `CC(C)(N)CNC(=O)C[C@H]1CC[C@@]2(CC1)OOC1(O2)C2CC3CC(C2)CC1C3` (some centres undefined), the outcome with Oocyte [1] and with Oocyte [3] was inactive. Moreover, the IC50 with Plasmodium falciparum amounted to 0.0016 µM. Also, in the experiment listed under Oryctolagus cuniculus [2], the inhibition was 50%. In the experiment with Oocyte [4], the outcome was Active. This compound also had a Ki in experiment [5] of 7.7 µM.
On to `C/C=C(/C)C(=O)O[C@H]1C(C)=C2[C@H]([C@@H]1OC(=O)CCCCCCC)[C@@](C)(OC(C)=O)C[C@H](OC(=O)CCC)[C@@]1(O)[C@H]2OC(=O)[C@@]1(C)O`, for which, in the experiment filed under Oryctolagus cuniculus [6], the inhibition turned out to be 75%.
Regarding `C[C@@H]1CC[C@H]2[C@@H](C)C(=O)O[C@@H]3O[C@@]4(C)CC[C@@H]1[C@]32OO4` [ARTEMISININ], the values for the Ki in experiment [7] and in experiment [5] were 6 µM and 0.079 µM, respectively.

(Values after ChEMBL document CHEMBL1142213, “Mechanism of antimalarial action of the synthetic trioxolane RBX11160 (OZ277)” (Antimicrob Agents Chemother, 2007).)
